Assay results: paper PMC10044725, “Antioxidant, Anti-Inflammatory and Anti-Diabetic Activities of Tectona grandis Methanolic Extracts, Fractions, and Isolated Compounds” (Antioxidants, 2023)
Marks after values point to notes of the source that are not given here.

Tests used:
[1] = DPPH free radical scavenging assay; settings: isolated compounds; half scavenging concentration; read-out: DPPH Assay SC50
Procedure: The DPPH free radical scavenging activities of T. grandis methanolic extract, different fractions and its compounds were conducted according to Dr. Yang et al.. […] The absorbance was measured using a microplate reader at 517 nm, and ascorbic acid was used as a positive control. The DPPH scavenging activity was calculated according to the following formula: Scavenging activity (%) = [1 − (A1 − A2)/(A3 − A4)] × 100% (1) where A1 is the OD value of the tested samples, A2 is the OD value of the sample control, A3 is the OD value of the negative control and A4 is the OD value of the blank control. The analysis was performed in triplicates and the results were described as SC50 values.

IL-1β = IL-1β secretion in LPS-stimulated RAW 264.7 macrophages (ELISA); assay type: cell-based, mouse; settings: 40 µM, LPS 1 µg/mL, 48 h, vs model control (p < 0.0001)
Procedure: (§1) In order to increase cytokine production, macrophages were treated with LPS at a final concentration of 1 µg/mL, and then with T. grandis compounds at 40 µM. The compounds were solubilized in DMEM medium containing 0.1% DMSO. Dexamethasone was employed as a positive control (5 µg/mL). A centrifuge was used to separate the supernatant from the cells after 48 h of incubation, with three replicates per group. Quantification of TNF-α, IL-1β and IL-6 secretion was achieved by following the ELISA manufacturer's instructions. Then, absorbance was measured at 450 nm. Relative TNF-α, IL-1β and IL-6 expression was calculated according to Equation (4). Following the inflammatory factor test, cell viability was detected by CellTiter96® Aqueous One Solution Cell Proliferation Assay. Then, 20 μL/well CellTiter96® Aqueous One Solution Cell Growth Assay reagent was added to the plate and incubated at 37 °C for 8 h, absorbance was measured at […] and relative cell viability was calculated according to Equation (5). Relative content of inflammatory cytokines (%) = (A1/A2)/A3 × 100%(4) where A1 is the concentrations value of inflammatory cytokines of each group, A2 is the relative cell viability of each group (model group is 100) and A3 is the concentration of inflammatory cytokines of model group. Cell viability rate (%) = B1/B2 × 100%(5) where B1 is the OD value of each fraction group or positive control group and B2 is the OD value of the model control.

α-glucosidase = assay: α-Glucosidase inhibition assay (pNPG); assay type: biochemical; settings: for Inhibitory Rate (%): at a concentration of 50 µM; for IC50: compounds
Procedure: The inhibitory effect on α-glucosidase was measured according to the previous report method with slight modifications. The 20 mM sample dissolved in DMSO was diluted to 50 μM in PBS, 10 μL sample was mixed with 50 μL of 0.1 μ/mL α-glucosidase solution in 0.1 M phosphate buffer (pH 6.5) in a 96-well microplate and 10 μL PBS was used as a blank control. The mixture was incubated at 37 °C for 10 min before adding 40 µL of 5 mM 4-nitrophenyl-α-D-glucopyranoside to each well. After 30 min of incubation at 37 °C, the reaction was terminated by adding 50 μL of 0.1 M Na2CO3 to this mixture. The released 4-nitrophenol absorbance measurements were carried out using a microplate reader (SpectraMax190, USA) at 405 nm.

TNF-α = TNF-α secretion in LPS-stimulated RAW 264.7 macrophages (ELISA); assay type: cell-based, mouse; settings: 40 µM, LPS 1 µg/mL, 48 h, vs model control (p < 0.01)
Procedure: as §1

[2] = ABTS radical cation scavenging assay (Trolox equivalent); settings: compounds at 50 μM
Procedure: The ABTS radical cation (ABTS•+) scavenging activities were conducted in accordance with the instructions for the ABTS kit. The total antioxidant activity values were estimated using the Trolox equivalent antioxidant capacity test. The detection concentration of methanolic extract and different fractions was 80 μg/mL, and the detection concentration of compounds (1–23) was 50 μM. […] Then, 190 μL of ABTS working reagent was mixed with 10 μL sample and incubated at room temperature for 5 min. The absorbance was then measured using a microplate reader at 734 nm, and the scavenging activity was calculated according to Equation (2). The blank control group used DMSO to replace the sample. […] The analysis was performed in triplicates, 1.424, 0.0012 was a constant.

IL-6 = IL-6 secretion in LPS-stimulated RAW 264.7 macrophages (ELISA); assay type: cell-based, mouse; settings: 40 µM, LPS 1 µg/mL, 48 h, vs model control (p < 0.05)
Procedure: as §1

[3] = Ferric reducing antioxidant power (FRAP) assay; settings: compounds at 50 μM; Trolox equivalent
Procedure: The FRAP assay was determined in accordance with the instructions for the FRAP kit. The total antioxidant activity values were estimated using the Trolox equivalent antioxidant capacity test. Initially, the detection concentration of methanolic extract and different fractions was 80 μg/mL, and the detection concentration of compounds (1–23) was 50 μM. Then, 190 μL of FRAP working reagent was mixed with 10 μL sample and incubated at room temperature for 20 min. The absorbance was then measured using a microplate reader at 593 nm, and the scavenging activity was calculated according to Equation (3). The blank control group used DMSO to replace the sample. […] The analysis was performed in triplicates, 0.8054, 0.0134 was a constant.

pBR322 DNA = assay: Prevention of AAPH-induced DNA oxidative damage; settings: AAPH 20 mM; p < 0.0001 vs model
Procedure: The effects of T. grandis methanolic extract, different fractions and its compounds 15, 19 and 23 on the prevention of DNA oxidative damage were carried out using the method of Han et al.. Initially, 8 μL pBR322 DNA (50 μg/mL) in PBS (0.1 M, pH 6.8) was mixed with different concentrations of T. grandis fractions and its compounds (12 μL) and incubated in water at 37 °C for 30 min. Then, 5 μL AAPH (20 mM) was added to the mixture and the reaction continued for 60 min. The control group used the same volume of PBS (0.1 M, pH 6.8) to replace AAPH. The pre-treated samples were mixed with 5 × DNA loading buffer, and the mixture (8 μL) was taken for 1.0% agarose gel electrophoresis for 25 min. After electrophoresis, the gels were stained with ethidium bromide for 20 min. Finally, images were taken using a DNA gel imaging system (ChampChemi 610, Beijing sage creation Co., Ltd. Beijing, China).

BSA = assay: Prevention of AAPH-induced protein oxidative damage; parameters: species or system Bovine; settings: AAPH 160 mM; residual BSA
Procedure: The protective activities of T. grandis methanolic extract, different fractions and its compounds 15 and 23 on protein oxidative damage were carried out using the method of Yang et al.. Initially, 20 μL BSA solutions (1 mg/mL) in PBS (0.1 M, pH 6.8) were mixed with different concentrations of fractions (40 μL) and compounds (40 μL) and incubated in water at 37 °C for 30 min. Then, 40 μL AAPH (160 mM) was added to the mixture and the reaction continued for 4 h. The control group used the same volume of PBS (0.1 M, pH 6.8) to replace AAPH. The pre-treated samples were added to 5 × SDS loading buffer and treated in water at 95 °C for 15 min. […] After electrophoresis, the gels were stained with Coomassie brilliant blue R-250 dye (0.25%, w/v), and then the gels were decolorized with the decolorizing solution. Finally, images were taken using the SDS-PAGE gel imaging system (ChampChemi 610, China) and the grayscale of Western blot was analyzed using Image J software.

| EC50 [1] [µM] | Inhibitory Rate (%) (α-glucosidase) | IC50 (α-glucosidase) [µM] | Structure (SMILES) | effect on IL-1β inflammatory factor level (IL-1β) | effect on TNF-α inflammatory factor level (TNF-α) | ABTS Assay [2] | effect on IL-6 inflammatory factor expression (IL-6) | FRAP Assay [3] | concentration at which a protective effect against DNA oxidative damage begins (pBR322 DNA) [mM] | concentration at which a protective effect against protein oxidative damage begins (BSA) [µM] |
| --- | --- | --- | --- | --- | --- | --- | --- | --- | --- | --- |
| 8.09 ± 1.05 | 10.62 ± 1.39 ^d % | > 50 | O=c1cc(-c2ccc(O)c(O)c2)oc2cc(O[C@@H]3O[C@H](CO)[C@@H](O)[C@H](O)[C@H]3O)cc(O)c12 [Compound 1, luteolin-7-O-β-D-glucoside] | significant decrease | could decrease | 0.08 ± 0.01 ^d mmol Trolox/L | significant activities in reducing the expression | – | – | – |
| 3.56 ± 0.53 | 13.84 ± 0.93 ^d % | > 50 | COC(=O)c1cc(O)c2c(c1)C(=O)c1ccccc1C2=O [Compound 13, 3-carbomethoxy-1-hydroxy-9,10-anthraquinone] | significant decrease | – | 0.04 ± 0.00 ^d mmol Trolox/L | significant activities in reducing the expression | 0.01± 0.01 ^c mmol Trolox/L | – | – |
| 1.99 ± 0.34 | 18.30 ± 2.22 ^cd % | > 50 | C[C@@H]1O[C@@H](O[C@@H]2[C@@H](O)[C@H](OCCc3ccc(O)c(O)c3)O[C@H](CO)[C@H]2OC(=O)/C=C/c2ccc(O)c(O)c2)[C@H](O)[C@H](O)[C@H]1O [Compound 15, verbascoside] | – | – | 1.10 ± 0.77 ^a mmol Trolox/L | – | 1.22 ± 0.11 ^a mmol Trolox/L | 0.6 | 40 |
| 8.45 ± 0.57 | 22.91 ± 1.10 ^c % | > 50 | CC1CCC2(C(=O)OC3OC(CO)C(O)C(O)C3OC3OC(CO)C(O)C(O)C3O)CCC3(C)C(=CCC4C5(C)CC(O)C(O)C(C)(CO)C5CCC43C)C2C1(C)O [Compound 18, 2β,3β,19α,23-tetrahydroxy-urs-12-en-28-O-[β-D-glucopyranosyl (1-2)-β-D-glucopyranosyl] ester] | significant decrease | could decrease | – | significant activities in reducing the expression | 0.39 ± 0.00 ^b mmol Trolox/L | – | – |
